Laboratory results reported in ChEMBL document CHEMBL3885861, “Open TG-GATES”.

Species on record: Rattus norvegicus
Test: Open TG-GATES - Regimen: Daily Repeat
Assay type: toxicity, organism-based, Sprague-Dawley
Design: regimen Daily Repeat, gender Male, age 6 weeks
Conditions: in vivo, po, 300 mg/kg, route gavage, dose level Middle; for APTT / Bas / Eos / Fbg / Hb / Ht / Lym / MCH / MCHC / MCV / Mono / Neu / PT / Plat / RBC / Ret / WBC: tissue Blood; for KIDNEY_L / KIDNEY_R / KIDNEY_TOTAL: tissue Kidney; for LIVER: tissue Liver; for A/G / ALP / ALT / AST / BUN / CRE / Ca / Cl / DBIL / GLC / IP / K / LDH / Na / PL / RALB / TBIL / TC / TG / TP / gamma-GTP: tissue Plasma

## CN/C(=N/CCSCc1nc[nH]c1C)NC#N [CIMETIDINE]
72 h, time 3 day
  TERMINAL_BW: 228.5 g
  APTT: 18.9 s
  Bas: 0%
  Eos: 1%
  Fbg: 228.2 mg/dL
  Hb: 13.1 g/dL
  Ht: 39.2%
  Lym: 80%
  MCH: 21.3 pg
  MCHC: 33.6%
  MCV: 63.5 fL
  Mono: 2.6%
  Neu: 14.8%
  PT: 12.4 s
  Plat: 125.9 x10_4/uL
  RBC: 616.6 x10_4/ul
  Ret: 6%
  WBC: 104.1 x10_2/uL
  KIDNEY_L: 1 g
  KIDNEY_R: 1 g
  KIDNEY_TOTAL: 2 g
  LIVER: 11.4 g
  A/G: 1.6
  ALP: 1094.2 IU/L
  ALT: 37.6 IU/L
  AST: 67.2 IU/L
  BUN: 15.8 mg/dL
  CRE: 0.4 mg/dL
  Ca: 11.1 mg/dL
  Cl: 102.4 meq/L
  DBIL: 0.1 mg/dL
  GLC: 195 mg/dL
  IP: 7.2 mg/dL
  K: 4.1 meq/L
  LDH: 140.8 IU/L
  Na: 140.8 meq/L
  PL: 156.2 mg/dL
  RALB: 3.5 g/dL
  TBIL: 0.2 mg/dL
  TC: 79.2 mg/dL
  TG: 119.8 mg/dL
  TP: 5.7 g/dL
  gamma-GTP: 0.6 IU/L
[…], time 7 day
  TERMINAL_BW: 259.4 g
  APTT: 19.2 s
  Bas: 0%
  Eos: 1%
  Fbg: 222.6 mg/dL
  Hb: 13.6 g/dL
  Ht: 40.9%
  Lym: 78.2%
  MCH: 21 pg
  MCHC: 33.1%
  MCV: 63.2 fL
  Mono: 2.6%
  Neu: 16.6%
  PT: 12.6 s
  Plat: 127.8 x10_4/uL
  RBC: 646.8 x10_4/ul
  Ret: 5.3%
  WBC: 107.7 x10_2/uL
  KIDNEY_L: 1.1 g
  KIDNEY_R: 1.1 g
  KIDNEY_TOTAL: 2.2 g
  LIVER: 12.3 g
  A/G: 1.5
  ALP: 951.8 IU/L
  ALT: 32.2 IU/L
  AST: 64.6 IU/L
  BUN: 17.6 mg/dL
  CRE: 0.4 mg/dL
  Ca: 10.8 mg/dL
  Cl: 102.4 meq/L
  DBIL: 0.094 mg/dL
  GLC: 234.6 mg/dL
  IP: 7.6 mg/dL
  K: 3.8 meq/L
  LDH: 168 IU/L
  Na: 141.4 meq/L
  PL: 156.2 mg/dL
  RALB: 3.4 g/dL
  TBIL: 0.1 mg/dL
  TC: 73.4 mg/dL
  TG: 120 mg/dL
  TP: 5.6 g/dL
  gamma-GTP: 1.4 IU/L
[…], time 14 day
  TERMINAL_BW: 317.5 g
  APTT: 18.9 s
  Bas: 0%
  Eos: 1%
  Fbg: 222.4 mg/dL
  Hb: 14.2 g/dL
  Ht: 42.9%
  Lym: 80%
  MCH: 20 pg
  MCHC: 32.9%
  MCV: 60.6 fL
  Mono: 2.8%
  Neu: 15.8%
  PT: 12.7 s
  Plat: 125.7 x10_4/uL
  RBC: 709.6 x10_4/ul
  Ret: 4.3%
  WBC: 117.5 x10_2/uL
  KIDNEY_L: 1.2 g
  KIDNEY_R: 1.2 g
  KIDNEY_TOTAL: 2.4 g
  LIVER: 14.6 g
  A/G: 1.4
  ALP: 1080.4 IU/L
  ALT: 37.8 IU/L
  AST: 65.8 IU/L
  BUN: 19.2 mg/dL
  CRE: 0.4 mg/dL
  Ca: 10.5 mg/dL
  Cl: 102 meq/L
  DBIL: 0.1 mg/dL
  GLC: 216.2 mg/dL
  IP: 7.2 mg/dL
  K: 3.9 meq/L
  LDH: 176.4 IU/L
  Na: 140.6 meq/L
  PL: 164.2 mg/dL
  RALB: 3.3 g/dL
  TBIL: 0.2 mg/dL
  TC: 77.6 mg/dL
  TG: 129 mg/dL
  TP: 5.8 g/dL
  gamma-GTP: 1 IU/L
[…], time 28 day
  TERMINAL_BW: 390.1 g
  APTT: 18.7 s
  Bas: 0%
  Eos: 1%
  Fbg: 225.2 mg/dL
  Hb: 14.6 g/dL
  Ht: 42.1%
  Lym: 82.6%
  MCH: 19.5 pg
  MCHC: 34.6%
  MCV: 56.3 fL
  Mono: 2.2%
  Neu: 13.2%
  PT: 13 s
  Plat: 108.2 x10_4/uL
  RBC: 747.2 x10_4/ul
  Ret: 2.5%
  WBC: 140.1 x10_2/uL
  KIDNEY_L: 1.4 g
  KIDNEY_R: 1.4 g
  KIDNEY_TOTAL: 2.8 g
  LIVER: 16.3 g
  A/G: 1.3
  ALP: 725.6 IU/L
  ALT: 39.4 IU/L
  AST: 67 IU/L
  BUN: 18.6 mg/dL
  CRE: 0.5 mg/dL
  Ca: 10.1 mg/dL
  Cl: 101.8 meq/L
  DBIL: 0.1 mg/dL
  GLC: 253 mg/dL
  IP: 6.7 mg/dL
  K: 3.4 meq/L
  LDH: 183.8 IU/L
  Na: 140.2 meq/L
  PL: 148 mg/dL
  RALB: 3.3 g/dL
  TBIL: 0.2 mg/dL
  TC: 70.6 mg/dL
  TG: 128 mg/dL
  TP: 5.8 g/dL
  gamma-GTP: 1.2 IU/L
